# Test results from US20230143751A1, “Aromatic Compound And Use Thereof In Preparing Antineoplastic Drugs” (Shanghai Zheye Biotechnology Co. Ltd., priority 2020, published 2023).
# Read-outs that look alike come from different tables or passages of the source.
# Tests used:
# [1] = Preliminary safety test, 5-day escalating oral dosing in Balb/c mice; format: in vivo
# Protocol: Test samples: Compound 3-2, Compound 3-6, Compound 3-12M, Compound 3-20, and Compound 4-8.
# Animal species and number: Balb/c; 6 animals per group (half male and half female).
# Administration mode: oral administration by gavage.
# Animal grouping and administration dose: vehicle blank group, Compound 3-2 group (200 mg/kg, 400 mg/kg, 800 mg/kg), Compound 3-6 group (200 mg/kg, 400 mg/kg, 800 mg/kg), Compound 3-12M group (200 mg/kg, 400 mg/kg, 800 mg/kg), Compound 3-20 group (200 mg/kg, 400 mg/kg, 800 mg/kg), Compound 4-8 group (200 mg/kg, 400 mg/kg, 800 mg/kg).
# Administration frequency: once a day for 5 days.
# General clinical observations were performed 2 times a day (once in the morning and once in the afternoon) during the test period. Death, morbidity, respiration, secretions, feces, and diet, drinking situation and so on were observed, and the changes in body weight of the mice during the administration period were recorded. The animals in each group were euthanized after the administration, and all animals were dissected and subjected to gross observation.
# [2] = tested on: NCI-H358-derived xenograft tumor; assay: Pharmacodynamics study of H358-derived xenograft tumor model (test 9); format: in vivo, nude mice; conditions: 3-12M 20 and 100 mg/kg, ARS1620 100 mg/kg, i.g., QD×28 days
# Protocol: Animal species and number: Balb/c Nude; 10 animals per group.
# Test samples: Compound ARS1620 (the representative inhibitor targeting KRAS G12C tumor
# target, acquired by purchase) and Compound 3-12M.
# Test groups: blank solvent control group;
# Compound ARS1620 (100 mg/kg, i.g., QD×28 days);
# Compound 3-12M (20 mg/kg, i.g., QD×28 days);
# Compound 3-12M (100 mg/kg, i.g., QD×28 days).
# NCI-H358 tumor cells in logarithmic growth phase were cultured in vitro and collected, and inoculated subcutaneously into the right back of nude mice at a quantity of 5×10^6 cells/each. When the tumor volume reached 150˜300 mm^3, the tumor-bearing nude mice were randomly grouped. Subsequently, the animals in each group were administered, and the day of the first administration was defined as day 1 of the test.
# (§1) Administration route and frequency: oral administration by gavage; once a day.
# (§2) General state observation: observation time and frequency: once a day; observation indexes or contents: including but not limited to administration location, appearance and signs, general behavioral activities, mental status, death and other abnormal performance of the animals. The animals were euthanized at the end of the test.
# Tumor volume calculation: V=½×long diameter×short diameter^2 (mm^3).
# [3] = tested on: MIA PaCa-2-derived xenograft tumor; assay: Pharmacodynamics test of MIA PaCa-2-derived xenograft tumor model in nude mice (test 6); format: in vivo
# Protocol: Animal species and number: Balb/c Nude; 6 animals per group.
# Test samples: Compound 3-2, Compound 3-6, Compound 3-20, Compound 3-12M.
# Test groups: blank solvent control group; Compound 3-2 (10 mg/kg, QD×15 days), Compound 3-6 (10 mg/kg, QD×15 days), Compound 3-20 (10 mg/kg, QD×15 days), Compound 3-12M (10 mg/kg, QD×15 days).
# Animal model establishment: MIA paca-2 tumor cells in logarithmic growth phase were cultured in vitro and collected, and inoculated subcutaneously into the right back of nude mice at a quantity of 5×10^6 cells/each. When the tumor volume reached 150-300 mm^3, the tumor-bearing nude mice were randomly grouped. Subsequently, the animals in each group were administered, and the day of the first administration was defined as day 1 of the test.
# as §1, §2
# Tumor volume calculation: V=½×long diameter×short diameter^2 (mm^3). Tumor growth inhibition rate TGI (%) is used to evaluate the tumor inhibition efficacy of the compounds. TGI (%)=[1−(mean tumor volume in treatment group at the end of administration−mean tumor volume in treatment group at the beginning of administration)/(mean tumor volume in control group at the end of administration−mean tumor volume in control group at the beginning of administration)]×100%.
# NCI-H358 cells = assay: Cell proliferation activity of NCI-H358 by CellTiter-Glo reagent; format: cell-based
# In short: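 NCI-H358 cells seeded at 2000–3000 per well and grown overnight at 37° C, 5% CO2 before compound exposure. Viability read by CellTiter-Glo luminescence; IC50 from curve fitting.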
# KRAS G12C = KRAS G12C (Homo sapiens, UniProt P01116, G12C); assay: Effect on KRAS(G12C) enzyme activity (KRAS G12C/c-Raf binding, Eu/d2 energy transfer); format: biochemical
# Protocol: Compound stock solution was taken, and the test compound was subjected to gradient elution in DMSO. The above diluted compound was added into a quantitative volume of enzyme reaction buffer and subjected to oscillation on a microplate oscillator for 20 min.
# 4 μL of enzyme was transferred to a 384-well reaction plate. 1 μL of the test compound was added into the 384-well reaction plate. The plate was sealed with sealing film, and the reaction plate with the compound was centrifuged at 1000 rpm for 1 min and incubated for 60 min. 5 μL of a mixture of substrate and antibody was transferred to the 384-well reaction plate. The plate was sealed with sealing film, then centrifuged at 1000 rpm for 1 min and incubated for 120 min at room temperature.
# Ratiopositive control: average value of the ratios of 10 positive control wells; Rationegative control: average value of the ratios of 10 negative control wells.
# [4] = target: T1, human-derived MDR1 (MDR1 coding P-gp) transporter protein (Homo sapiens, UniProt P08183); assay: Transport effect of transporter MDR1 (vesicle uptake, P-gp substrate assessment); format: in vitro ADME; conditions: vesicles expressing human-derived MDR1, 37° C.
# T1 construct: expressed in transfected cells; host or cells: membrane vesicles expressing human MDR1
# Protocol: For this test, fluorescein and N-methylquinidine were used as the probe substrates in positive control group. ATP-containing test sample or positive control samples were prepared and pre-incubated with MDR1 vesicles at 37° C. After the pre-incubation, the two kinds of samples were mixed and co-incubated at 37° C. The samples were then transferred to a 96-well filter plate, and washed by suction filtration. The vesicles on the filter plate were lysed by using 80% of methanol, and then centrifuged to collect the filtrate. The filtrate was added with pre-cooled methanol containing internal standard. After the centrifugation, the obtained supernatant was taken and the test sample or positive control samples were detected.
# T1 sequence (P08183 whole entry): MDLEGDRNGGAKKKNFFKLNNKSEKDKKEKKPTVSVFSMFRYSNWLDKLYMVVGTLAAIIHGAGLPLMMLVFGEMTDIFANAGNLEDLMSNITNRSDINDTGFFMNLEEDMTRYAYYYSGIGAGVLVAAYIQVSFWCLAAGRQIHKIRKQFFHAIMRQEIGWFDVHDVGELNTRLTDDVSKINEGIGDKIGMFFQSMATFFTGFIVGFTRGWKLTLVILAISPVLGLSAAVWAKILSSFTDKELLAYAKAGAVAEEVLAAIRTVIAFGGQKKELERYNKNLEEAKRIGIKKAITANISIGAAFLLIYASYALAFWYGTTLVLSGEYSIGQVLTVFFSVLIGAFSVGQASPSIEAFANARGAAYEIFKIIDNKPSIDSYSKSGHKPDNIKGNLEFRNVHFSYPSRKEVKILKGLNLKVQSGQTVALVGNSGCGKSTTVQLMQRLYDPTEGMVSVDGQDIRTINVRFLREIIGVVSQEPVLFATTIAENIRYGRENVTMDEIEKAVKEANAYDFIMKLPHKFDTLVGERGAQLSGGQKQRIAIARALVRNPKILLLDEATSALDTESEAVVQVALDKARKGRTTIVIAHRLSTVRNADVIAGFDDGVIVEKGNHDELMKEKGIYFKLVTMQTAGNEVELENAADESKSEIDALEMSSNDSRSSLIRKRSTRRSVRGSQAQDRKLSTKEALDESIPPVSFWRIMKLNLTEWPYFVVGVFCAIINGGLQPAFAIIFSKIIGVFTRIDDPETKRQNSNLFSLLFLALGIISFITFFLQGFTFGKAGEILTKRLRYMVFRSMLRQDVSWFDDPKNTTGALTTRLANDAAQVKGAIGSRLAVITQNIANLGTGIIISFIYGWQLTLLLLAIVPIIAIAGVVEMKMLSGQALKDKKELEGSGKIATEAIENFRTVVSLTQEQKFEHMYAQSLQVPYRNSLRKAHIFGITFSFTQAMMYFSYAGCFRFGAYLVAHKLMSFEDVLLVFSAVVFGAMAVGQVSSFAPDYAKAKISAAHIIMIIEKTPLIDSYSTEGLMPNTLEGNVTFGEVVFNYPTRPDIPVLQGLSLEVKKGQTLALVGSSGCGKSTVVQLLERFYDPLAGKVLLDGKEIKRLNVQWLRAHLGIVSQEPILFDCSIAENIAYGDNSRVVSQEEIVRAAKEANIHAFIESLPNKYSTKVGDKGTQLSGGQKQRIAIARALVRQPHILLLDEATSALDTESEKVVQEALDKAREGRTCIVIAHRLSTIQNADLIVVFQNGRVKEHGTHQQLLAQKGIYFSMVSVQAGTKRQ
# KRAS G12C, sequence (P01116 1-188 isoform P01116-2 G12C): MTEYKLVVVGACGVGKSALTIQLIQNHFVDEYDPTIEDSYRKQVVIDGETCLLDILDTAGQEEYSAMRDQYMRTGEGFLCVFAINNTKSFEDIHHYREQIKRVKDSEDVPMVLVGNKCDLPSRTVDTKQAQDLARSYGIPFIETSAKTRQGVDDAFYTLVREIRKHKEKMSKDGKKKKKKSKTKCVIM
smiles,measurement,setting,value
[2H]C([2H])=Cc1cccc(F)c1-c1nc2c(cc1Cl)c(N1CCN(C(=O)C=C)C[C@@H]1C)nc(=O)n2-c1c(C)ccnc1C(C)C [Compound 3-12M],MTD at 5 days,"[1]; both sexes, mouse, in vivo, oral gavage, 5 days, initially suggested, read-out: maximum tolerated dose",> 800 mg/kg
same,"water and food intake, activity and body weight during the administration period (in words)","[1]; oral gavage once a day for 5 days, 200 to 800 mg/kg",no significant abnormality was showed
same,inhibitory activity on tumor growth in vivo compared with ARS1620 (in words),[2],significantly better than that of ARS1620
same,inhibition effect on the growth of subcutaneously transplanted tumors derived from pancreatic cancer MIA paca-2 cells in nude mice (in words),[3]; 10 mg/kg QD×15 days,significant inhibition effect
same,tumor inhibition rate compared with Compound 3-20 (in words),[3]; 10 mg/kg QD×15 days,higher than that of Compound 3-20
same,Tumor inhibition rate (%),"[3]; MIA PaCa-2 xenograft, nude mice, 10 mg/kg oral gavage QD×15 days",+++ (“+++” represents a tumor inhibition rate of >80%)
same,anti-cell proliferation activity against KRAS G12C mutant type cells NCI-H358 (in words),"NCI-H358 cells; 72 h, CellTiter-Glo",significant anti-cell proliferation activity
same,IC50,"NCI-H358 cells; Homo sapiens, NCI-H358, 72 h, 72 h, CellTiter-Glo, test 3, read-out: IC50 value of cell proliferation inhibitory activity of NCI-H358",< 50 nM
same,cell proliferation inhibitory activity on NCI-H358 compared with the corresponding compound with axial chiral S configuration (in words),NCI-H358 cells; NCI-H358,significantly better
same,cell proliferation inhibitory activity of R-configuration compound relative to the corresponding axial chiral S-configuration compound,"NCI-H358 cells; NCI-H358, 3-12M versus 3-12P",more than 5 times
same,cell proliferation inhibitory activity of NCI-H358 compared with AMG510 (in words),NCI-H358 cells; test 8,better than AMG510
same,IC50,"NCI-H358 cells; test 8, method of test 3, read-out: IC50 of proliferation inhibitory activity of the compound on NCI-H358 cell line",8 nM
same,inhibitory activity on KRAS G12C enzyme compared with AMG510 (in words),KRAS G12C,remarkable better
same,substrate for P-gp (in words),[4],not a substrate for P-gp
